Test results as given in ChEMBL document CHEMBL1140062, “Inactivation of NF-kappaB components by covalent binding of (-)-dehydroxymethylepoxyquinomicin to specific cysteine residues” (J Med Chem, 2008).
Active and inactive are the calls of the source. The rule behind the calls is not given here.

Columns and labels:
[1] = target: Transcription factor p65 (Homo sapiens) (UniProt Q04206); assay: Inhibition of DNA binding activity of full-length recombinant NF-kappaB p65 Rel subunit at 10 uM by EMSA
[2] = Inhibition of DNA binding activity of NF-kappaB p65 (1-325) Rel subunit at 20 uM by EMSA
[3] = Binding affinity to NF-kappaB p65 (1-325) Rel subunit at 100 uM by surface plasmon resonance analysis
[4] = test system: Transcription factor p65 (Homo sapiens), Q04206 [C38S]; assay: Inhibition of DNA binding activity of NF-kappaB p65 (1-325) C38S mutant by EMSA
[5] = test system: Transcription factor p65 (Homo sapiens), Q04206 [C120S]; assay: Inhibition of DNA binding activity of NF-kappaB p65 (1-325) C120S mutant by EMSA
[6] = test system: Transcription factor p65 (Homo sapiens), Q04206 [C38S]; assay: Inhibition of DNA binding activity of NF-kappaB p65 (1-325) C38S mutant by MALDI-TOF MS analysis
[7] = test system: Transcription factor p65 (Homo sapiens), Q04206 [C120S]; assay: Inhibition of DNA binding activity of NF-kappaB p65 (1-325) C120S mutant by MALDI-TOF MS analysis
[8] = target: T1, Nuclear factor NF-kappa-B p105 subunit (Homo sapiens) (UniProt P19838); assay: Inhibition of DNA binding activity of wild type NF-kappaB p50
T1 sequence (whole entry): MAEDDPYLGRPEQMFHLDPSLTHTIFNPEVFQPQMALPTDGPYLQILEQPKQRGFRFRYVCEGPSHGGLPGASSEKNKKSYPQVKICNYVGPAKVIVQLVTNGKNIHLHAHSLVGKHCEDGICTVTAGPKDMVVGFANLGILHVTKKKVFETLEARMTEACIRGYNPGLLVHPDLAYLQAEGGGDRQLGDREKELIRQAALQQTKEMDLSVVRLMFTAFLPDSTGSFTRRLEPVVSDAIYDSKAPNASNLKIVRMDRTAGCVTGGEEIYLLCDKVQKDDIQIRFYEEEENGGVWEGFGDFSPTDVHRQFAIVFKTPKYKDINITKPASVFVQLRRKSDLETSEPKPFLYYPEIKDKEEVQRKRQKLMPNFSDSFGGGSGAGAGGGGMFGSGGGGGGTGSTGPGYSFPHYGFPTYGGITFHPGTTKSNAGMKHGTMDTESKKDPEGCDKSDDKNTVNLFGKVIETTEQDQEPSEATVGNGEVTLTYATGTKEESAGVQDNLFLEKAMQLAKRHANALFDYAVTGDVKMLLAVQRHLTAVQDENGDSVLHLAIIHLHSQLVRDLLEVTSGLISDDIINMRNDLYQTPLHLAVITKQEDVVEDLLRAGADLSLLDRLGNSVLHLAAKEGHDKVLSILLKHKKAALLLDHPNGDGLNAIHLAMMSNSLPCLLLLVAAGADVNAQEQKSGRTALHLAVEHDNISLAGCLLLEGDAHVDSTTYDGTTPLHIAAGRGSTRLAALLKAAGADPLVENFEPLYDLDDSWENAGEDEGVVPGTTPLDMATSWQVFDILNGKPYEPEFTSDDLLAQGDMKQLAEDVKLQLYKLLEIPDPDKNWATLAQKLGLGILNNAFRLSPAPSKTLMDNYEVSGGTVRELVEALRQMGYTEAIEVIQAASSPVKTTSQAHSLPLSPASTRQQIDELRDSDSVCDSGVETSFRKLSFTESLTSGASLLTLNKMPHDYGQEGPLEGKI

[9] = Inhibition of DNA binding activity of NF-kappaB p50 C62S mutant
[10] = target: T1, Nuclear factor NF-kappa-B p105 subunit (Homo sapiens); assay: Inhibition of DNA binding activity of wild type NF-kappaB p50 by MALDI-TOF MS analysis
[11] = Inhibition of DNA binding activity of NF-kappaB p50 C62S mutant by MALDI-TOF MS analysis
[12] = Inhibition of DNA binding activity of wild type NF-kappaB cRel (1-307)
[13] = test system: T2, Proto-oncogene c-Rel (Homo sapiens), Q04864 [C27S]; assay: Inhibition of DNA binding activity of NF-kappaB cRel (1-307) C27S mutant
T2 sequence (whole entry): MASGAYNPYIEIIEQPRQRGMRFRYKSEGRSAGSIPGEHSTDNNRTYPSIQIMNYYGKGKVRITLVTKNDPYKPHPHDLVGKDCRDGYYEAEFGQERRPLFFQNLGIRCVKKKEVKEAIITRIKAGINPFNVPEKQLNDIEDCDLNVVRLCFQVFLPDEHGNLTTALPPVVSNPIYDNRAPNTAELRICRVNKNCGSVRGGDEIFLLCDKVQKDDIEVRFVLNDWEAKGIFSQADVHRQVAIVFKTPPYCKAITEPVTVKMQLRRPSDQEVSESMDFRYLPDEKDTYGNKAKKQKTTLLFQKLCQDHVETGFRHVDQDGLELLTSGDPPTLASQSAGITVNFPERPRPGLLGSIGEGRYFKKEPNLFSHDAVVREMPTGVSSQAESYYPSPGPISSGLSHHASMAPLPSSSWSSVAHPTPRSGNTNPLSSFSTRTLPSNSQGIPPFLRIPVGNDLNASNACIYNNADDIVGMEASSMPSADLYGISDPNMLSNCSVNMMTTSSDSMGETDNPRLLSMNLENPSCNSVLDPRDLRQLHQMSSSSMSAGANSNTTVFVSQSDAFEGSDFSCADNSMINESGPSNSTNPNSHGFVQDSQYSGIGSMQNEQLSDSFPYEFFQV

[14] = Inhibition of DNA binding activity of wild type NF-kappaB cRel (1-307) by MALDI-TOF MS analysis
[15] = test system: T2, Proto-oncogene c-Rel (Homo sapiens), Q04864 [C27S]; assay: Inhibition of DNA binding activity of NF-kappaB cRel (1-307) C27S mutant by MALDI-TOF MS analysis
[16] = target: T3, Nuclear factor NF-kappa-B p100 subunit (Homo sapiens) (UniProt Q00653); assay: Inhibition of DNA binding activity of NF-kappaB p52
T3 sequence (whole entry): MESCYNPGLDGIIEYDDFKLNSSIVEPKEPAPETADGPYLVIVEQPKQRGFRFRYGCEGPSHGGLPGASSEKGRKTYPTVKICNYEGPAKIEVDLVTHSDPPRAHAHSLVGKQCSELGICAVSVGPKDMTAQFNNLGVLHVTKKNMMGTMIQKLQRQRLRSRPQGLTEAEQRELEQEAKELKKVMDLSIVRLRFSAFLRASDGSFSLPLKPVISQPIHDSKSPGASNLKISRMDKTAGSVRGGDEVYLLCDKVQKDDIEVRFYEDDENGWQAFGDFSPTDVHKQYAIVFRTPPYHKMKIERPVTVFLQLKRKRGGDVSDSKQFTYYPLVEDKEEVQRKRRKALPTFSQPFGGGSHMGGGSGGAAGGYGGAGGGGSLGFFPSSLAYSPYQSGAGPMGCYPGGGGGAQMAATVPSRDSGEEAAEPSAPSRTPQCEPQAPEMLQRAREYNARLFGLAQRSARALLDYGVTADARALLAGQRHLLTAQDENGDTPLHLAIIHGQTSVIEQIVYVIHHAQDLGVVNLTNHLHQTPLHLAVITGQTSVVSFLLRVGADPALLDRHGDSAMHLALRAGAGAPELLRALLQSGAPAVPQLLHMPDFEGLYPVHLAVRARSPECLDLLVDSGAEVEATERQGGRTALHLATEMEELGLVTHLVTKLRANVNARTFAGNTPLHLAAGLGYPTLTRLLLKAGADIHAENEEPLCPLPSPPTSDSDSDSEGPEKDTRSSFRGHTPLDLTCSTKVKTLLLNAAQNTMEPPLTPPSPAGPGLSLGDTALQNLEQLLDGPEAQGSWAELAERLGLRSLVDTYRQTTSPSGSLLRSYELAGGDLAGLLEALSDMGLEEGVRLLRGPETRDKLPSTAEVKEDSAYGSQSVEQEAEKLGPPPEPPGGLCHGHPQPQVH

[17] = target: Transcription factor p65 (Homo sapiens) (UniProt Q04206); assay: Inhibition of TNF-alpha-stimulated DNA binding activity of wild type NF-kappaB p65 expressed in HeLa cells at 10 ug/mL by EMSA; type: cell-based
[18] = test system: Transcription factor p65 (Homo sapiens), Q04206 [C38S]; assay: Inhibition of TNF-alpha-stimulated DNA binding activity of NF-kappaB p65 C38S mutant expressed in HeLa cells at 10 ug/mL hrs by EMSA; type: cell-based
HeLa [19] = assay: Decrease of TNF-alpha-stimulated wild type NF-kappaB p65 level in human HeLa cell nucleus at 10 ug/mL by Western blot analysis; type: functional, cell-based
HeLa [20] = assay: Decrease of TNF-alpha-stimulated NF-kappaB p65 C38S mutant level in human HeLa cell nucleus at 10 ug/mL by Western blot analysis; type: functional, cell-based
[21] = Inhibition of DNA binding activity of NF-kappaB p50 C144S mutant by MALDI-TOF MS analysis
HeLa [22] = assay: Decrease of TNF-alpha-stimulated endogenous NF-kappaB p65 level in human HeLa cell nucleus at 10 ug/mL by Western blot analysis; type: functional, cell-based
[23] = test system: Transcription factor p65 (Homo sapiens), Q04206 [C38S]; assay: Inhibition of DNA binding activity of full-length recombinant NF-kappaB p65 Rel subunit C38S mutant at 10 uM by EMSA
Albumin = Albumin (Bos taurus, UniProt P02769); assay: Binding affinity to bovine serum albumin; type: ADME; settings: cattle, isolated protein
Chain of Albumin (P02769 whole entry): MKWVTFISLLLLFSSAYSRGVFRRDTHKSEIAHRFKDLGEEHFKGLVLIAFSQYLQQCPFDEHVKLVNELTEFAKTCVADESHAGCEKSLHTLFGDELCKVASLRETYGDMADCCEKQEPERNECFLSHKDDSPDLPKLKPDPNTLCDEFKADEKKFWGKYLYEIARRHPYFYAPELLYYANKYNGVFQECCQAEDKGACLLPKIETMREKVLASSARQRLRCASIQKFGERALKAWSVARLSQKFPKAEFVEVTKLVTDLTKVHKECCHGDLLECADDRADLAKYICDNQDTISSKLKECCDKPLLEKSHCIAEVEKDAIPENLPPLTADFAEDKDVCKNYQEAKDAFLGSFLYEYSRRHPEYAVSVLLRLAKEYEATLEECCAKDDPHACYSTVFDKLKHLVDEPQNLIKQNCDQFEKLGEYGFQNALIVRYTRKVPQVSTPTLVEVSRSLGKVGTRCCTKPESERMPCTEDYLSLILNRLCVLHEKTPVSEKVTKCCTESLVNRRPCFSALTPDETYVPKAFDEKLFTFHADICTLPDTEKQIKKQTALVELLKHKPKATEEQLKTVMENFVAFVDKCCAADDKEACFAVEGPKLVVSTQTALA

Chain of Transcription factor p65 (Homo sapiens), Q04206 [C38S] (Q04206 whole entry C38S): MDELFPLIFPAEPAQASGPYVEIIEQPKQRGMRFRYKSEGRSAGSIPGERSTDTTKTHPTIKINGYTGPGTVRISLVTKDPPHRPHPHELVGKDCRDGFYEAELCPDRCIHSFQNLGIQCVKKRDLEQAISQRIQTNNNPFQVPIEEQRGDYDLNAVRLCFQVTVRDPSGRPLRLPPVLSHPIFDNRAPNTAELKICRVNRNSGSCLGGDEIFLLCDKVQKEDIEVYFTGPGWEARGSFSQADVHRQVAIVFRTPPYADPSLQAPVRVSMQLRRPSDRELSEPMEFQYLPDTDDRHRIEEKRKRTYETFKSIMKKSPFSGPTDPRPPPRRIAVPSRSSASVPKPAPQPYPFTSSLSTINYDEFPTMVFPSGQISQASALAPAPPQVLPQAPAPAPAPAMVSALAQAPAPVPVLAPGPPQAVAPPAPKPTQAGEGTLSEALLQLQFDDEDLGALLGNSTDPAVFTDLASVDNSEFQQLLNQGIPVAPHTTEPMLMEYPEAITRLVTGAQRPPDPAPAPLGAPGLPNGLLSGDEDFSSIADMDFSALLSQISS
Chain of Transcription factor p65 (Homo sapiens), Q04206 [C120S] (Q04206 whole entry C120S): as the sequence (Q04206 whole entry C38S) above, with S38C, C120S counted along it
Chain of Transcription factor p65 (Homo sapiens) (Q04206 whole entry): as the sequence (Q04206 whole entry C38S) above, with S38C counted along it

Structure (SMILES): O=C(NC1=CC(=O)[C@H]2O[C@H]2[C@H]1O)c1ccccc1O [DEHYDROXYMETHYLEPOXYQUINOMICIN]
- Activity [1]: inactive
- Activity [2]: Active
- Activity [3]: Active
- Activity [4]: inactive
- Activity [5]: Active
- Activity [6]: inactive
- Activity [7]: Active
- Activity [8]: Active
- Activity [9]: inactive
- Activity [10]: Active
- Activity [11]: inactive
- Activity [12]: Active
- Activity [13]: inactive
- Activity [14]: Active
- Activity [15]: inactive
- Activity [16]: inactive
- Activity [17]: Active
- Activity [18]: inactive
- Activity (HeLa [19]): Active
- Activity (HeLa [20]): inactive
- Activity [21]: inactive
- Activity (HeLa [22]): Active
- Activity [23]: inactive
- Activity (Albumin): Not Active
